Measurements: ChEMBL document CHEMBL1152778, “Design, synthesis, and biological evaluation of (2R,alphaS)-3,4-dihydro-2-[3-(1,1,2,2-tetrafluoroethoxy)phenyl]-5-[3-(trifluoromethoxy)-phenyl]-alpha-(trifluoromethyl)-1(2H)-quinolineethanol as potent and orally active cholesteryl ester transfer protein inhibitor” (J Med Chem, 2009)
pIC50: −log10 of the molar value. Active and inactive are the calls of the source. The rule behind the calls is not given here.

Assays:
[1] = molecular target: T1, Cholesteryl ester transfer protein (Homo sapiens, UniProt P11597); assay: Inhibition of CETP-mediated transfer of [3H]cholesteryl ester from HDL donar particles to LDL acceptor particles
T1 sequence (P11597 whole entry): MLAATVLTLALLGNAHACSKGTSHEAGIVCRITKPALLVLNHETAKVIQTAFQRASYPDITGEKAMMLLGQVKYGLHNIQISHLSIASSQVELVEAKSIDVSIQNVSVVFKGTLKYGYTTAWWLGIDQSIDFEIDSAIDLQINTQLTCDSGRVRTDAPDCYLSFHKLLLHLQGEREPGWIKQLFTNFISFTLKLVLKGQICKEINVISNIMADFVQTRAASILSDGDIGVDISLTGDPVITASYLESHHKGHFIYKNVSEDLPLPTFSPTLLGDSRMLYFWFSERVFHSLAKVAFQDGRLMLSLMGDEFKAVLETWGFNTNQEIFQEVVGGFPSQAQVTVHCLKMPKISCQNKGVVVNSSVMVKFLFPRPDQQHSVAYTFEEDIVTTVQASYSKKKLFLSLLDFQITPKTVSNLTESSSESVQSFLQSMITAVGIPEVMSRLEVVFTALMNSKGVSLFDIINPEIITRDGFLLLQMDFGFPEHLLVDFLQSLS

[2] = molecular target: Phospholipid transfer protein (Homo sapiens) (UniProt P55058); assay: Inhibition of PLTP activity assessed as phosphatidylcholine transferred from [3H]phosphatidylcholine (dipalmitoyl)-labeled liposomes to HDL by cell based liquid scintillation counter
[3] = molecular target: T2, Phosphatidylcholine-sterol acyltransferase (Homo sapiens) (UniProt P04180); assay: Inhibition of LCAT activity in human plasma assessed as change in cholesteryl ester/free cholesterol ratio by cell based assay
T2 sequence (whole entry): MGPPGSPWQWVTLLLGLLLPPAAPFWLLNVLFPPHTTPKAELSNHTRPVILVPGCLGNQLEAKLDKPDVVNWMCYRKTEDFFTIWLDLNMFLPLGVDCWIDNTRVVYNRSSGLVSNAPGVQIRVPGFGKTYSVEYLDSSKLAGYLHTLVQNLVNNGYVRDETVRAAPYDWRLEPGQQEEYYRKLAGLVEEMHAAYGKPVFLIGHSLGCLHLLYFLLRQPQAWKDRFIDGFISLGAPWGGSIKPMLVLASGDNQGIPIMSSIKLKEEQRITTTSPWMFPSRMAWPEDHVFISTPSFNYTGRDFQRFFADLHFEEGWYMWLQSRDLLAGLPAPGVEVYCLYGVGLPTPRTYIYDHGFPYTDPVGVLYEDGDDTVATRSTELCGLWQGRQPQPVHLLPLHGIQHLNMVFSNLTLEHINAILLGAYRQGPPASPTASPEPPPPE

[4] = molecular target: T3, Hepatic triacylglycerol lipase (Homo sapiens) (UniProt P11150); assay: Inhibition of hepatic lipase activity assessed as release of free fatty acid from hydrolysis of VLDL by cell based assay
T3 sequence (whole entry): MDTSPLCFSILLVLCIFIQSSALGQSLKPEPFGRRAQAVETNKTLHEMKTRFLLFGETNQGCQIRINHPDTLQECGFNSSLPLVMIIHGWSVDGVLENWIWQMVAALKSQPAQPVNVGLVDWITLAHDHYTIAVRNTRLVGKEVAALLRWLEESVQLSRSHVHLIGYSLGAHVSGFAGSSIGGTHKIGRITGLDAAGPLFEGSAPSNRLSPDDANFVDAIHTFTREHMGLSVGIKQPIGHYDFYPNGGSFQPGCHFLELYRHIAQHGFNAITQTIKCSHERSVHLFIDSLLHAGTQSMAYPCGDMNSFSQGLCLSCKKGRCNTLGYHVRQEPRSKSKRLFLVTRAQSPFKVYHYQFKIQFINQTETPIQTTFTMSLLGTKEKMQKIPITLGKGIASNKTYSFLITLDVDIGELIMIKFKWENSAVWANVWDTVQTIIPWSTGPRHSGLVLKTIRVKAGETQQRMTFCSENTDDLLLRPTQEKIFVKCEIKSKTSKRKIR

[5] = molecular target: T4, Lipoprotein lipase (Homo sapiens) (UniProt P06858); assay: Inhibition of lipoprotein lipase activity assessed as release of free fatty acid from hydrolysis of VLDL by cell based assay
T4 sequence (whole entry): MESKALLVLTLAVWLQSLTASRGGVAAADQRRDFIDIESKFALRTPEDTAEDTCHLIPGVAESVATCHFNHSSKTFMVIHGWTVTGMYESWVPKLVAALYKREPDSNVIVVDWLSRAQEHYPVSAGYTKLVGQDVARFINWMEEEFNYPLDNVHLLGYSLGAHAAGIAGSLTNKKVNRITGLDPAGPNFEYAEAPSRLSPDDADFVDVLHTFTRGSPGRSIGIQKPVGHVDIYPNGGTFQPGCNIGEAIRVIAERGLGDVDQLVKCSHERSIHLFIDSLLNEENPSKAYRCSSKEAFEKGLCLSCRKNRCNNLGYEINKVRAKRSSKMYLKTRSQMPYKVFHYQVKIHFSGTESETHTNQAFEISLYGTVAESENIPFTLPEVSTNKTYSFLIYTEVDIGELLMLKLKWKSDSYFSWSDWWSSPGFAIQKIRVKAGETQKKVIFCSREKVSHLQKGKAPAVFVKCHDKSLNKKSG

[6] = molecular target: T5, Microsomal triglyceride transfer protein large subunit (Homo sapiens) (UniProt P55157); assay: Inhibition of microsomal triglyceride transfer protein by cell based assay
T5 sequence (whole entry): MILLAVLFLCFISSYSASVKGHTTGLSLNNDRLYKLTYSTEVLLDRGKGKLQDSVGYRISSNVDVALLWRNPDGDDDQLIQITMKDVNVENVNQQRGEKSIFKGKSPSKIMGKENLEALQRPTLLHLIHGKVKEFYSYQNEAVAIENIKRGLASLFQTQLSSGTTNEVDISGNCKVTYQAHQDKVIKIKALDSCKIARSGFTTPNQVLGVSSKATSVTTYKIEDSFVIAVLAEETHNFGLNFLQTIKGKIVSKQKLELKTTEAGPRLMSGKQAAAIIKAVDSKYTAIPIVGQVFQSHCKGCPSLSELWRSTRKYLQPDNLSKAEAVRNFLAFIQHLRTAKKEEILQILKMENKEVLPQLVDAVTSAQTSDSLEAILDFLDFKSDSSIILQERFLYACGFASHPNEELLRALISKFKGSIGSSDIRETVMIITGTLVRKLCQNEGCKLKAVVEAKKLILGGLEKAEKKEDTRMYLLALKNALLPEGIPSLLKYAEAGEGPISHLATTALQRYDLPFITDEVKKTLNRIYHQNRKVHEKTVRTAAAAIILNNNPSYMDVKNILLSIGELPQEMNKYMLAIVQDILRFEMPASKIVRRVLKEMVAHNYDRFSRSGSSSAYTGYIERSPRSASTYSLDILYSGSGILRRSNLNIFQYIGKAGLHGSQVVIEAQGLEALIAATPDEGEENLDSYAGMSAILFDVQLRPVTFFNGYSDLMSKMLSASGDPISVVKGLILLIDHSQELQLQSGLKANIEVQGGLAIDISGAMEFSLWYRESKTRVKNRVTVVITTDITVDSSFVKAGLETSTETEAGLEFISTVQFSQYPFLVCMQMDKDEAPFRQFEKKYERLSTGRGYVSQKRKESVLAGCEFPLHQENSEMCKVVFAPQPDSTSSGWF

[7] = molecular target: T6, Endothelial lipase (Homo sapiens) (UniProt Q9Y5X9); assay: Inhibition of endothelial lipase by cell based assay
T6 sequence (whole entry): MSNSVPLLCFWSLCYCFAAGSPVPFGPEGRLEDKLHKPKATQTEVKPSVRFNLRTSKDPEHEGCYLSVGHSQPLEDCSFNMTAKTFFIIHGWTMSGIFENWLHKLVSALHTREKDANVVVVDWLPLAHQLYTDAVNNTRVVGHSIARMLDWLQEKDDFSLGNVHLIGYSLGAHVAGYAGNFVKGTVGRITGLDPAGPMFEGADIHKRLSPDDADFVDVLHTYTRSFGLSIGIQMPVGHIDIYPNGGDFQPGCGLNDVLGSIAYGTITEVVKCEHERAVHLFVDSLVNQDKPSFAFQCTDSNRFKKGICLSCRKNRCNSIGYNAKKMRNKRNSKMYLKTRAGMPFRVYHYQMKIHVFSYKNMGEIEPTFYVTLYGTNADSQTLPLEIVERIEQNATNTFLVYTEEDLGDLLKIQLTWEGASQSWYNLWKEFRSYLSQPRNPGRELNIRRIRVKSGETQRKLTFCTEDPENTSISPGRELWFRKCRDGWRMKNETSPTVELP

Hamster = assay: Increase in HDLC level in high-fat fed hamster model at 30 mg/kg, po for 5 days measured after 2 hrs of last dose; assay type: functional, Cricetinae
Mus musculus = assay: Increase in HDLC level in normal chow diet-fed human CETP transgenic mouse model at 30 mg/kg, po for 5 days measured after 2 hrs of last dose; assay type: functional
Cynomolgus monkey [8] = assay: Increase in HDLC level in normal chow diet-fed cynomolgus monkey at 3 mg/kg, po for 5 days measured after 10 hrs of last dose; assay type: functional, Macaca fascicularis
Cynomolgus monkey [9] = assay: Increase in HDLC level in normal chow diet-fed cynomolgus monkey at 10 mg/kg, po for 5 days measured after 10 hrs of last dose; assay type: functional, Macaca fascicularis
Cynomolgus monkey [10] = assay: Increase in HDLC level in normal chow diet-fed cynomolgus monkey at 30 mg/kg, po for 5 days measured after 10 hrs of last dose; assay type: functional, Macaca fascicularis
Cynomolgus monkey [11] = assay: Ex vivo inhibition of CETP in normal chow diet-fed cynomolgus monkey at 3 mg/kg, po for 5 days by Roar assay; assay type: functional; details: Macaca fascicularis, 120 h
Cynomolgus monkey [12] = assay: Ex vivo inhibition of CETP in normal chow diet-fed cynomolgus monkey at 10 mg/kg, po for 5 days by Roar assay; assay type: functional; details: Macaca fascicularis, 120 h
Cynomolgus monkey [13] = assay: Ex vivo inhibition of CETP in normal chow diet-fed cynomolgus monkey at 30 mg/kg, po for 5 days by Roar assay; assay type: functional; details: Macaca fascicularis, 120 h
[14] = Plasma concentration in normal chow diet-fed cynomolgus monkey at 3 mg/kg, po for 5 days; assay type: ADME, organism-based, Macaca fascicularis; set-up: dose 3 mg/kg, route oral
[15] = Plasma concentration in normal chow diet-fed cynomolgus monkey at 10 mg/kg, po for 5 days; assay type: ADME, organism-based, Macaca fascicularis; set-up: dose 10 mg/kg, route oral
[16] = Plasma concentration in normal chow diet-fed cynomolgus monkey at 30 mg/kg, po for 5 days; assay type: ADME, organism-based, Macaca fascicularis; set-up: dose 30 mg/kg, route oral

Chain of Phospholipid transfer protein (Homo sapiens) (P55058 whole entry): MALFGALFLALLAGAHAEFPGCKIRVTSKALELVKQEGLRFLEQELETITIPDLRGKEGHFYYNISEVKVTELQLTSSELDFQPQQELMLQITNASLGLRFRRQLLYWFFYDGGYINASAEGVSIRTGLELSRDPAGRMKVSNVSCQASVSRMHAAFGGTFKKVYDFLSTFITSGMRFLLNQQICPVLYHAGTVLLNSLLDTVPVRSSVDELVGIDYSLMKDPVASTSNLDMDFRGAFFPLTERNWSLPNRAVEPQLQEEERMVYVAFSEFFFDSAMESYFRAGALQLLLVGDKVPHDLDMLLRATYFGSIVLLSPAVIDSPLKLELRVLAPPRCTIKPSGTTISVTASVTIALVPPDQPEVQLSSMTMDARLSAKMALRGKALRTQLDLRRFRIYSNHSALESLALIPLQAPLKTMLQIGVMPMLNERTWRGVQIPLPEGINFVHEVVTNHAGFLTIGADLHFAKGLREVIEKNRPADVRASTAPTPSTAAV

pIC50 [1] | Activity [2] | Activity [3] | Activity [4] | Activity [5] | Activity [6] | Activity [7] | concentration at 120 h [14] [nM] | concentration at 120 h [15] [nM] | concentration at 120 h [16] [nM] | SMILES | Activity (Hamster) [%] | Activity (Mus musculus) [%] | Activity (Cynomolgus monkey [8]) [%] | Activity (Cynomolgus monkey [9]) [%] | Activity (Cynomolgus monkey [10]) [%] | inhibition in vivo at 3 mg/kg (Cynomolgus monkey [11]) [%] | inhibition in vivo at 10 mg/kg (Cynomolgus monkey [12]) [%] | inhibition in vivo at 30 mg/kg (Cynomolgus monkey [13]) [%]
7.35 | – | – | – | – | – | – | – | – | – | OC(CN1c2cccc(-c3cccc(OC(F)(F)F)c3)c2CCC1c1cccc(OC(F)(F)C(F)F)c1)C(F)(F)F (racemic) | – | – | – | – | – | – | – | –
– | inactive | inactive | inactive | inactive | inactive | inactive | 300 | 1300 | 2900 | CCOC(=O)N1c2ccc(C(F)(F)F)cc2[C@@H](N(Cc2cc(C(F)(F)F)cc(C(F)(F)F)c2)C(=O)OC)C[C@H]1CC [TORCETRAPIB] | 44 | 28 | 24 | 41 | 44 | 35 | 66 | 85
